Assay results taken from BindingDB's records for doi:10.1002/cbic.200500168 (University of Leipzig, 2005).

Molecular target: T1, Kinesin-like protein KIF11 (Homo sapiens, UniProt P52732)
T1 sequence (P52732 whole entry): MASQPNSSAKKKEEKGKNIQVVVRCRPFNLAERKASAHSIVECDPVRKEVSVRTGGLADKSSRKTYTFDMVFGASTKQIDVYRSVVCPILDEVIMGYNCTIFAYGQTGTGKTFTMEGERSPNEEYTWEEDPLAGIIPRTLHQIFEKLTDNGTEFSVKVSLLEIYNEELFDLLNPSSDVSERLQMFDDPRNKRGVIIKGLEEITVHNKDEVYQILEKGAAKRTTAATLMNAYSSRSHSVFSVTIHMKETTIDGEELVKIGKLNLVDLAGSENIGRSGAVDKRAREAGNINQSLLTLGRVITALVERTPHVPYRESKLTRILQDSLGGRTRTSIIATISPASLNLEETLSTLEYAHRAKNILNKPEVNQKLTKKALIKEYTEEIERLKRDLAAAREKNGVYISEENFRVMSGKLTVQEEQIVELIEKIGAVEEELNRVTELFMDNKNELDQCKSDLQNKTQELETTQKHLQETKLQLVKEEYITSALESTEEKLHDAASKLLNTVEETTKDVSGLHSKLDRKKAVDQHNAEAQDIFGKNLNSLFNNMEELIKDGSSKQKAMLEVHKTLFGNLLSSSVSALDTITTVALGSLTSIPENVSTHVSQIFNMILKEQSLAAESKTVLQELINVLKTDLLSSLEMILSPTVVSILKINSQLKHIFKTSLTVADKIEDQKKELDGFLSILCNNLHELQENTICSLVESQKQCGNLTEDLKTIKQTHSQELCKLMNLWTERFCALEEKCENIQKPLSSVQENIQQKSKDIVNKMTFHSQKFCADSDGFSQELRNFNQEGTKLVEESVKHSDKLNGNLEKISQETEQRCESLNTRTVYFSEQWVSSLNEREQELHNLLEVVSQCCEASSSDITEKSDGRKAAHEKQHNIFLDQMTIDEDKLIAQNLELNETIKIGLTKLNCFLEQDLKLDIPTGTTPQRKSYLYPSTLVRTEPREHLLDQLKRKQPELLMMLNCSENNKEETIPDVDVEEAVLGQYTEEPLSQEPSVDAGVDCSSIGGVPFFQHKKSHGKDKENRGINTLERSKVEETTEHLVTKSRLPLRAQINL
Test: Malachite Green Assay
Conditions: pH 6.8; 25 °C
Protocol: The ATPase activity of the Eg5 motor domain was measured by using the malachite green assay.

IC50 [µM]	Structure (SMILES)
5.75	Oc1cccc(C2NC(=S)Nc3ccc(Br)cc32)c1 (stereo not given) [VS-17]
20.7	CCOC(=O)C1C(C)=NC(=S)N[C@H]1c1cccc(O)c1 (stereo not given in full) [Monastrol]
1.17	Oc1cccc(C2NC(=S)Nc3cccc(F)c32)c1 (stereo not given) [VS-83]
7.59	Cc1ccc2c(c1)NC(=S)NC2c1cccc(O)c1 (stereo not given) [VS-91]
2.73	Cc1ccc2c(c1)C(c1cccc(O)c1)NC(=S)N2 (stereo not given) [VS-94]

Continued, compound first:

Structure (SMILES)	IC50 [µM]
Oc1cccc(C2NC(=S)Nc3ccc(F)cc32)c1 (stereo not given) [VS-77]	8.04
Oc1cccc(C2NC(=S)Nc3ccccc32)c1 (stereo not given) [VS-12]	7.6
Oc1cccc(C2NC(=S)Nc3cc(F)c(F)cc32)c1 (stereo not given) [VS-87]	2.74
Oc1cccc(C2NC(=S)Nc3ccc(Cl)cc32)c1 (stereo not given) [VS-42]	5.77
Oc1cccc(C2NC(=S)Nc3cc(F)ccc32)c1 (stereo not given) [VS-54]	1.81
